Reference: article PMC3477139 (PLoS ONE, 2012)

What was measured:
human GLP-1R [1] = molecular target: T1, human GLP-1R (Homo sapiens, UniProt P43220); assay: cAMP generation in intact HEK-GLP-1R cells; type: cell-based; details: IBMX; for EC50: pEC50 of the GLP-1 9–36 amide response (cAMP), 15 min, mean±s.e.m., n = 4
T1 construct: expressed in transfected cells; vector pcDNA5/FRT
Protocol: (§1) HEK-Flp-In cells with stable recombinant expression of the human GLP-1R (HEK-GLP-1R) were cultured in DMEM with high glucose supplemented with 10% FBS, 100 µg/ml streptomycin and 100 units/ml penicillin sulphate. These cells were originally generated by transfection of HEK-Flp-In cells (Invitrogen: Paisley, U.K.) with pcDNA5/FRT containing the human GLP-1R. […] INS-1E cells were kindly provided by Prof. C.B. Wollheim of the University of Geneva, Switzerland [19]. These cells were used between passages 65–90 and cultured in RPMI media containing 11.1 mM glucose, 5% heat-inactivated FBS, 100 µg/ml streptomycin, 100 units/ml penicillin sulphate, 100 units/ml neomycin, 50 µM β-mercaptoethanol, 10 mM HEPES and 1 mM sodium pyruvate. All cells were cultured at 37°C in a 5% CO2 humidified atmosphere and passaged at confluence.
(§2) Confluent monolayers of HEK-GLP-1R cells cultured in 24-well plates pre-coated with poly-D-lysine (0.1% w/v) where washed twice with 0.5 ml Krebs-HEPES buffer (KHB, composition: 10 mM HEPES; 4.2 mM NaHCO3; 11.7 mM D-glucose; 1.18 mM MgSO4·7H2O; 1.18 mM KH2PO4; 4.69 mM KCl; 118 mM NaCl; 1.3 mM CaCl2·2H2O; pH 7.4) containing 0.1% (w/v) BSA (KHB-BSA) before incubation (10 min, 37°C) in 360 µl KHB-BSA containing 500 µM isobutylmethylxanthine (IBMX). Ligands or vehicle control (40 µl) were added and reactions terminated after the appropriate times by replacement of the aqueous phase with ice-cold 0.5 M trichloroacetic acid. INS-1E cells grown to confluence in 24-well plates were treated similarly with the exception that after washing in KHB, cells were incubated in 200 µl KHB-BSA containing 1.4 mM glucose without IBMX for 2 h followed by challenge with ligands (or vehicle) for 15 min at 37°C in 400 µl KHB-BSA, in the presence of 10 mM glucose and 500 µM IBMX. Reactions were terminated as above.
(§3) The cAMP was extracted from either intact cell or membrane preparations using a method identical to that for extraction of Ins(1,4,5)P3 [22]. Levels of cAMP were then determined by a competitive radioreceptor assay using binding protein purified from bovine adrenal glands and related to cellular protein assessed by Bradford assay.
(§4) Concentration-response curves were fitted using GraphPad Prism (GraphPad Software Inc., CA) using a standard four parameter logistic equation. All data are representative of n≥3 or are presented as mean+/±s.e.m., where n = 3 unless otherwise stated. Statistical analysis was by oneway ANOVA and where P<0.05, followed by Bonferroni's or Dunnett's multiple range test as indicated. Alternatively analysis was performed by Student's t-test. Where potency estimates are given these are pEC50 values (−log10 of the molar concentration giving 50% of the maximal response).

human GLP-1R [2] = molecular target: T1, human GLP-1R; assay: cAMP generation by membranes from HEK-GLP-1R cells; type: biochemical; details: read-out: Emax as % of the GLP-1 7–36 amide response, cAMP (membranes); 5 min, 30°C, IBMX
Protocol: as §3, §4

[3] = molecular target: T2, GLP-1R (native, rat insulinoma cell line INS-1E) (Rattus norvegicus, UniProt P32301); assay: cAMP generation in INS-1E cells; type: cell-based; details: INS-1E, read-out: Emax as % of that evoked by GLP-1 7–36 amide, cAMP (INS-1E), in the presence of compound 2
T2 construct: the rat insulinoma cell line, INS-1E, with native expression of the GLP-1R; endogenous in cells; host or cells: INS-1E rat insulinoma cells (gift of Prof. C.B. Wollheim)
T2 sequence (P32301 22-463): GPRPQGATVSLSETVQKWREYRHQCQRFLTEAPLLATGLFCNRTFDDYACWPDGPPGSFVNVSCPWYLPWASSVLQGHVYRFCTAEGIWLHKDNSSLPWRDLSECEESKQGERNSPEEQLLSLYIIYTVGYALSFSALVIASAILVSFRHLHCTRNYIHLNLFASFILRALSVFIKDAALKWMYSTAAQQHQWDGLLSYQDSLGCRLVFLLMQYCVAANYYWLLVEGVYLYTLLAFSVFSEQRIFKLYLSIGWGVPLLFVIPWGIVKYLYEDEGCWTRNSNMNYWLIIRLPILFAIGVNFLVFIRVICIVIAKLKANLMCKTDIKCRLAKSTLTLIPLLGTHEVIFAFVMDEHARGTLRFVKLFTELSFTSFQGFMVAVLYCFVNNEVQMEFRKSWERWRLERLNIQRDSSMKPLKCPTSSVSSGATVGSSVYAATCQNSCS
Protocol: as §1, §2, §3, §4

human GLP-1R [4] = molecular target: T1, human GLP-1R; assay: ERK activation (phospho-ERK Western blot) in HEK-GLP-1R cells; type: cell-based; details: GLP-1 9–36 amide (1 µM) + compound 2 (0.1 µM to 1 µM), 5 min; n = 3
Protocol: as §4

[5] = in vivo, cited from earlier work
Source text: (§5) Such proteolysis is thought to remove biological activity.

adenylyl cyclase = assay: cAMP generation by direct activation of adenylyl cyclase with forskolin; type: biochemical; details: membranes from HEK-GLP-1R cells, 5 min, 30°C, IBMX
Protocol: Generation of cAMP by cell membranes was determined based on previously published methods, [21]. Membranes were prepared from confluent cell monolayers grown in 80 cm^2 flasks. Cells were washed with 5 ml HBS (154 mM NaCl, 10 mM HEPES, pH 7.4, 37°C), detached using harvesting buffer (154 mM NaCl, 10 mM HEPES, 5.4 mM EDTA, pH 7.4, 37°C) and collected by centrifugation (200 g, 2 min, 4°C). The cell pellet was resuspended in 1 ml of homogenization buffer (10 mM HEPES, 10 mM EDTA, pH 7.4) and sonicated (Sonifier Ultrasonic Cell Disruptor; Branson, CT) at 30% of the maximal amplitude for 3×5 s at ∼30 s intervals before centrifugation (30,000 g, 4°C, 10 min). After removal of the supernatant, pellets were collected in resuspension buffer (10 mM HEPES, 0.1 mM EDTA, pH 7.4), protein concentration adjusted to 1 mg/ml and stored in aliquots at −80°C until assay. Generation of cAMP was determined in 100 µl containing: 10 mM HEPES, 12 mM MgCl2, 60 mM NaCl, 1.2 mM EDTA, 1.2% w/v BSA, 5% DMSO, 480 µM ATP, 2 mM IBMX, 10 µM GTP, 20 µg membrane and ligands as indicated. […]
as §3

β2-adrenoceptors = assay: cAMP accumulation via β2-adrenoceptors in HEK-GLP-1R cells; type: cell-based; details: isoproterenol 100 µM, IBMX, 5% DMSO
Protocol: Ligands or vehicle control (40 µl) were added and reactions terminated after the appropriate times by replacement of the aqueous phase with ice-cold 0.5 M trichloroacetic acid. […] Reactions were terminated as above.
as §3
All data are mean±/+s.e.m., n = 3–4, *** P<0.001 and ** P<0.01 by Bonferroni's multiple range test. For clarity only differences between ‘numerical’ and ‘co-addition’ conditions are shown.

GLP-1R [6] = details: ref [9]; cited from earlier work
Source text: as §5

[7] = molecular target: GLP-1 7-36 amide 7-36 (Homo sapiens) (UniProt P01275); details: cited from earlier work
GLP-1R [8] = details: intact GLP-1; ref [16], [18], [30], [40]; cited from earlier work
type 2 diabetes = details: exogenous GLP-1; ref [11]; cited from earlier work
Source text: GLP-1 is generated within intestinal L-cells by the a ...

T1 sequence (P43220 24-463): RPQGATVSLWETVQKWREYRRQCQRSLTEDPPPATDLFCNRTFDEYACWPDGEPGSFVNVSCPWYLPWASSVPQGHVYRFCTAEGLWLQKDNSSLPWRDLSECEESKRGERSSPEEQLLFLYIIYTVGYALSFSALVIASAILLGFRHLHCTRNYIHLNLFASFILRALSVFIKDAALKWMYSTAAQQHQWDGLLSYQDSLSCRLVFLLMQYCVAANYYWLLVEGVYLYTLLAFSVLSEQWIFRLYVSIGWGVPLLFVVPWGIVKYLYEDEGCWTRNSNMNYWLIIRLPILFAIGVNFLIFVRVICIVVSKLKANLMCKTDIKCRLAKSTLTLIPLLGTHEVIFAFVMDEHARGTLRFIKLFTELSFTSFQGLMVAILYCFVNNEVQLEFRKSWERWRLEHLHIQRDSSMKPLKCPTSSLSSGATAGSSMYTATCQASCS
GLP-1 7-36 amide 7-36 (Homo sapiens), sequence (P01275 7-36): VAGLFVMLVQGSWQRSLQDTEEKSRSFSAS
GLP-1R, sequence (P43220 24-463): as the sequence (P43220 24-463) above

CC[C@H](C)[C@H](NC(=O)[C@H](Cc1ccccc1)NC(=O)[C@H](CCC(=O)O)NC(=O)[C@H](CCCCN)NC(=O)[C@H](C)NC(=O)[C@H](C)NC(=O)[C@H](CCC(N)=O)NC(=O)CNC(=O)[C@H](CCC(=O)O)NC(=O)[C@H](CC(C)C)NC(=O)[C@H](Cc1ccc(O)cc1)NC(=O)[C@H](CO)NC(=O)[C@H](CO)NC(=O)[C@@H](NC(=O)[C@H](CC(=O)O)NC(=O)[C@H](CO)NC(=O)[C@@H](NC(=O)[C@H](Cc1ccccc1)NC(=O)[C@@H](NC(=O)CNC(=O)[C@@H](N)CCC(=O)O)[C@@H](C)O)[C@@H](C)O)C(C)C)C(=O)N[C@@H](C)C(=O)N[C@@H](Cc1c[nH]c2ccccc12)C(=O)N[C@@H](CC(C)C)C(=O)N[C@H](C(=O)N[C@@H](CCCCN)C(=O)NCC(=O)N[C@@H](CCCNC(=N)N)C(N)=O)C(C)C [GLP-1 9–36 amide, Glucagon-like peptide-1 9–36 amide]
EC50 (human GLP-1R [1]; compound 2: 0 µM): 309 nM | EC50 (human GLP-1R [1]; compound 2: 0.03 µM): 85.1 nM | EC50 (human GLP-1R [1]; compound 2: 0.1 µM, ** P<0.01 versus 0 µM compound 2): 32.4 nM | EC50 (human GLP-1R [1]; compound 2: 0.3 µM, *** P<0.001 versus 0 µM compound 2): 8.91 nM | EC50 (human GLP-1R [1]; compound 2: 1.0 µM, *** P<0.001 versus 0 µM compound 2): 5.25 nM | EC50 (human GLP-1R [1]; compound 2: 3.0 µM, *** P<0.001 versus 0 µM compound 2): 3.89 nM | Emax (human GLP-1R [1]; read-out: Emax as % of the GLP-1 7–36 amide response, cAMP, no pretreatment, 15 min challenge): 18% | Emax (human GLP-1R [2]): 23% | Emax [3]: ~50% | ERK activation in excess of the sum of the responses to the ligands alone (human GLP-1R [4]): 45–69% | peak plasma level, oral glucose tolerance test ([5]; po): ~60 pM

C=C[C@@]1(C)CC(=O)[C@]2(O)[C@@]3(C)[C@@H](O)CCC(C)(C)[C@@H]3[C@H](O)[C@H](OC(C)=O)[C@@]2(C)O1 [forskolin]
cAMP generation by forskolin (in words) (adenylyl cyclase): robustly increased cAMP generation

CC(C)NCC(O)c1ccc(O)c(O)c1 (stereo not shown) [isoproterenol]
cAMP accumulation (in words) (β2-adrenoceptors): stimulation of cAMP accumulation

GLP-1 7–37: generated from proglucagon by prohormone convertase 1/3
fasting plasma concentration [5]: < 10 pM | plasma concentration following a meal [5]: ~10 pM | relative potency at the GLP-1R (GLP-1R [6]): essentially equipotent

GLP-1R (from UniProt P43220)
Kd [7]: 1 nM

Glucagon-like peptide-1 [GLP-1]
affinity at the GLP-1R (GLP-1R [8]): nanomolar to sub-nanomolar affinity | effect on insulin secretion and hyperglycaemia in type 2 diabetes (type 2 diabetes): potentiates glucose-dependent insulin secretion and can normalize hyperglycaemia in type 2 diabetes
